“Also recorded” adds a separate entry of the source.
What was measured:
[1] = bovine
in vitro = settings: bovine, serum
mushroom tyrosinase = type: biochemical; settings: for oxidation rate (Rmax) by tyrosinase: pH 7.4

SMILES: O=C(NCCc1ccc(O)cc1)Oc1ccc(N(CCCl)CCCl)cc1 [1.1.1]
- % decomposition over time, 1 hr [1]: 7%
- % decomposition over time, 2 hrs [1]: 44%
- % decomposition over time, 3 hrs [1]: 61%
- % decomposition over time, 4 hrs [1]: 74%
- % decomposition over time, 6 hrs [1]: 100%
- half-life (in vitro): ~2.5 h

SMILES: COc1cccc2c1C(=O)c1c(O)c3c(c(O)c1C2=O)C[C@@](O)(C(C)=O)C[C@@H]3OC1CC(NC(=O)NCCc2ccc(O)cc2)C(O)C(C)O1 (stereo partly drawn) [1.1.5]
- quality as tyrosinase substrate / oxidation rate in words (mushroom tyrosinase): poor substrate
- % decomposition over time, 1 hr [1]: 0%
- % decomposition over time, 2 hrs [1]: 0%
- % decomposition over time, 3 hrs [1]: 0%
- % decomposition over time, 4 hrs [1]: 0%
- % decomposition over time, 6 hrs [1]: 0%
- % decomposition over time, 12 hrs [1]: 0%
- % decomposition over time, 24 hrs [1]: 0%
- % decomposition over time, 48 hrs [1]: 0%

SMILES: COC(=O)[C@H](Cc1ccc(O)cc1)NC(=S)Oc1ccc(N(CCCl)CCCl)cc1 [2.2.1]
- % decomposition over time, 1 hr [1]: 52%
- % decomposition over time, 2 hrs [1]: 92%
- % decomposition over time, 3 hrs [1]: 100%
- half-life (in vitro): ~1.5 h

SMILES: O=C(NCCc1ccc(O)cc1)Oc1ccc(N(CCCl)CCCl)cc1 [prodrug 9, {2′-(4″-Hydroxyphenyl)ethyl} carbamic acid p-(bis-2-chloroethylamino)phenyl ster]
- quality as tyrosinase substrate / oxidation rate in words (mushroom tyrosinase): good substrates

SMILES: O=C(NCCc1ccc(O)c(O)c1)Oc1ccc(N(CCCl)CCCl)cc1 [prodrug 10, {2′-(3″,4″-Dihydroxyphenyl)-ethyl} carbamic acid p-(bis-2-chloroethylamino) phenyl ester]
- quality as tyrosinase substrate / oxidation rate in words (mushroom tyrosinase): good substrates

SMILES: COC(=O)[C@@H](Cc1ccc(O)c(O)c1)NC(=O)Oc1ccc(N(CCCl)CCCl)cc1 [prodrug 16, (R)-[1′-Amino-2′-(3,4′-hydroxyphenyl)ethanonic acid methyl ester]-carbamic acid p-(bis-2-chloroethylamino) phenyl ester]
- oxidation by tyrosinase within incubation period (mushroom tyrosinase): not oxidized by tryorinase; also recorded: not oxidised by tyrosinase

SMILES: O=C(NCCc1ccc(O)cc1)Oc1ccc(N(CCCl)CCCl)cc1 [prodrug 21, {2′-(4″-Hydroxyphenyl)ethylamine) carbamic acid p-(bis-2-chloroethylamino) phenyl ester]
- oxidation rate (Rmax) by tyrosinase (mushroom tyrosinase): 7.5 nmol/min

SMILES: O=C(NCCSc1ccc(O)cc1)Oc1ccc(N(CCCl)CCCl)cc1 [prodrug 22]
- oxidation rate (Rmax) by tyrosinase (mushroom tyrosinase): 7.5 nmol/min

— patent publication US7183319B2 (priority 2000, dated 2007)
